Measurements as given in PMC5299059 (Cell metabolism, 2017).

How the values were obtained:
BRAF V600E [1] = biological target: T1, BRAF V600E (Homo sapiens, UniProt P15056, V600E); assay: […]-labeled acetoacetate radiometric binding to purified bead-bound BRAF
BRAF V600R [2] = biological target: T2, BRAF V600R (Homo sapiens, UniProt P15056, V600R); assay: as above
BRAF V600D [3] = biological target: T3, BRAF V600D (Homo sapiens, UniProt P15056, V600D); assay: as above
BRAF V600R [4] = biological target: T2, BRAF V600R; assay: […]-acetoacetate competition binding
BRAF V600D [5] = biological target: T3, BRAF V600D; assay: […]-acetoacetate competition binding
BRAF V600E [6] = biological target: T1, BRAF V600E; assay: […]-acetoacetate competition binding

T3 sequence (P15056 whole entry V600D): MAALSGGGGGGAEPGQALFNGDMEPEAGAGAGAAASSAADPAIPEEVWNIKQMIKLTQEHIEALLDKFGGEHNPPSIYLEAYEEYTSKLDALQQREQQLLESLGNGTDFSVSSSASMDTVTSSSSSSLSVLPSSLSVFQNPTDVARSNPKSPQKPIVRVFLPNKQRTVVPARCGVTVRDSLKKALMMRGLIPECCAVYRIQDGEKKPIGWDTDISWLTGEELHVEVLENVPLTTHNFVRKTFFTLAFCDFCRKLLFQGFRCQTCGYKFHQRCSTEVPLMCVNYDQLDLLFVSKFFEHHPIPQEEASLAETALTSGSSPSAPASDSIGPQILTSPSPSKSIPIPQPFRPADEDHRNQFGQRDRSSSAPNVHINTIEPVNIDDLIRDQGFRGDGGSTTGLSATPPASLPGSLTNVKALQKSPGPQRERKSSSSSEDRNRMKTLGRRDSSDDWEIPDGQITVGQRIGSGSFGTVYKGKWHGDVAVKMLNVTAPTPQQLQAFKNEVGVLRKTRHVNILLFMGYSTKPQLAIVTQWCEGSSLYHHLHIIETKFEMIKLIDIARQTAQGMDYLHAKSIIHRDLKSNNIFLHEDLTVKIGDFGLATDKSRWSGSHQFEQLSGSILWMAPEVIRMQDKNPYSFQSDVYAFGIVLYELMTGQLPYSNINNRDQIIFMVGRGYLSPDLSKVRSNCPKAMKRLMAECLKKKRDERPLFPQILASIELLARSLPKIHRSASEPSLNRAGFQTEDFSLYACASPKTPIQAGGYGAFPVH
T1 sequence (P15056 2-766 V600E): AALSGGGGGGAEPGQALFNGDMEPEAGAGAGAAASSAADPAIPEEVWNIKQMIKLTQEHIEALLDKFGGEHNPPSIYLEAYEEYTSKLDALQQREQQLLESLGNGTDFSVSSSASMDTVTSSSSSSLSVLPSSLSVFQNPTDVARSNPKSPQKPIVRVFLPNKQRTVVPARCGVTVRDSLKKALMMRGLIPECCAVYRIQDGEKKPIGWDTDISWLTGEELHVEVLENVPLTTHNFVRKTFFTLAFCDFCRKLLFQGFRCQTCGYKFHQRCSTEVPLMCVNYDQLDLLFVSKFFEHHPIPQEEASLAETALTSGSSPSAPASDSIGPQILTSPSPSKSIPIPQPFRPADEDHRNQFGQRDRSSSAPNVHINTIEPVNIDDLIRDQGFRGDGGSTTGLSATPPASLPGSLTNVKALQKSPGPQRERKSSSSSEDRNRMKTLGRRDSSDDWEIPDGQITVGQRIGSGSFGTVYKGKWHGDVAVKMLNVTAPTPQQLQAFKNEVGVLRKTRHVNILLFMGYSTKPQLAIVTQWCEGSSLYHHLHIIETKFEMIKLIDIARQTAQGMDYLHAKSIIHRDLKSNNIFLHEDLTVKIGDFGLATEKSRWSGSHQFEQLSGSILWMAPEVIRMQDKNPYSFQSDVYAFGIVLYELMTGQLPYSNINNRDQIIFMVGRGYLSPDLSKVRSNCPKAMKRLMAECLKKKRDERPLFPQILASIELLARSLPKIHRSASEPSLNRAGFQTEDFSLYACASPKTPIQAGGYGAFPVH
T2 sequence (P15056 whole entry V600R): as the sequence (P15056 whole entry V600D) above, with D600R counted along it

| Kd (BRAF V600E [1]) [µM] | Kd (BRAF V600R [2]) [µM] | Kd (BRAF V600D [3]) [µM] | Structure (SMILES) | Ki (BRAF V600R [4]) [µM] | Ki (BRAF V600D [5]) [µM] | Ki (BRAF V600E [6]) [µM] |
| --- | --- | --- | --- | --- | --- | --- |
| ~92 | ~113 | ~93 | CC(=O)CC(=O)O [AA, acetoacetate] | – | – | – |
| – | – | – | CC(=O)C1C(=O)C=C(C)OC1=O (stereo not drawn) [DHAA, dehydroacetic acid] | ~91 | ~88 | ~88 |
